Laboratory results published in US11827628B2, “Compositions and methods for inhibition of the JAK pathway” (Rigel Pharmaceuticals, Inc., priority 2005, dated 2023).
Structures can show the parent of a compound that is named as a salt. Where two headings read alike, the source gives them in different places.

System: IL-4 stimulated expression of CD23 in human Ramos B cells (JAK-1 and JAK-3)
Experiment: Assay for Ramos B-Cell Line Stimulated with IL-4 (CD23 upregulation, FACS)
Assay type: cell-based
Conditions: read-out: IC50, Example 41
Description: One means of assaying for such inhibition is detection of the effect of the 2,4-substituted pyrimidinediamine compounds on the upregulation of downstream gene products. In the Ramos/IL4 assay, B-cells are stimulated with the cytokine Interleukin-4 (IL-4) leading to the activation of the JAK/Stat pathway through phosphorylation of the JAK family kinases, JAK1 and JAK3, which in turn phosphorylate and activate the transcription factor Stat-6. […] To study the effect of inhibitors (e.g., the 2,4-substituted pyrimindinediamine compounds described herein) on the JAK1 and JAK3 kinases, human Ramos B cells are stimulated with human IL-4. Twenty to 24 hours post stimulation, cells are stained for upregulation of CD23 and analyzed using flow cytometry (FACS). […] An exemplary assay of this type is described in greater detail in Example 41
B-cells stimulated with cytokine Interleukin-4 (IL-4) activate the JAK/Stat pathway through phosphorylation of the JAK family kinases, JAK-1 and JAK-3, which in turn phosphorylate and activate the transcription factor Stat-6. […] To study the effect of inhibitors on the JAK family kinases, human Ramos B cells are stimulated with human IL-4.
The Ramos B-cell line was acquired from ATCC (ATCC Catalog No. CRL-1596). The cells were cultured in RPMI 1640 (Cellgro, MediaTech, Inc., Herndon, VA, Cat No. 10-040-CM) with 10% fetal bovine serum (FBS), heat inactivated (JRH Biosciences, Inc, Lenexa, Kansas, Cat No. 12106-500M) according to ATCC propagation protocol. Cells were maintained at a density of 3.5×10^5. The day before the experiment, Ramos B-cells were diluted to 3.5×10^5 cells/mL to ensure that they were in a logarithmic growth phase.
Cells were spun down and suspended in RPMI with 5% serum. 5×10^4 cells were used per point in a 96-well tissue culture plate. Cells were pre-incubated with compound or DMSO (Sigma-Aldrich, St. Louis, MO, Cat No. D2650) vehicle control for 1 hour in a 37° C. incubator. Cells were then stimulated with IL-4 (Peprotech Inc., Rocky Hill, NJ, Cat No. 200-04) for a final concentration of 50 units/mL for 20-24 hours. Cells were then spun down and stained with anti-CD23-PE(BD Pharmingen, San Diego, CA, Cat No. 555711) and analyzed by FACS. Detection was performed using a BD LSR I System Flow Cytometer, purchased from Becton Dickinson Biosciences of San Jose, California The IC50 calculated based on the results of this assay are provided in TABLE XII.

[1] = Ramos B-cell line stimulated with IL-4, CD23 expression by FACS
[2] = Ramos B cells stimulated with IL-4, CD23 expression by FACS
[3] = Homo sapiens, Ramos, Ramos B-cell line stimulated with IL-4, CD23 expression by FACS
[4] = Ramos B-cell line stimulated with IL-4, CD23 expression by FACS, sodium salt

Molecule | IC50 [1] [nM] | IC50 [3] [nM] | other results
5-Fluoro-N4-(4-[3-methyl-1,2,4-oxadiazol-5-yl]methyleneoxyphenyl)-N2-(5-piperidinesulfonylphenyl)-2,4-pyrimidinediamine [Compound I-272] | 788 |  | 
COc1ccc(CN2C(=O)C(C)Oc3ccc(Nc4nc(Nc5cccc(S(N)(=O)=O)c5)ncc4F)cc32)cc1 (racemic) [Compound V-5, Racemic N2-(3-Aminosulphonylphenyl)-5-fluoro-N4-[2-methyl-3-oxo-4-(4-methoxybenzyl)-benz[1,4]oxazin-6-yl]-2,4-pyrimidinediamine] |  |  | IC50 [2]: 696 nM
COc1ccc(CN2C(=O)C(C)Sc3ccc(Nc4nc(Nc5ccc(C)c(S(N)(=O)=O)c5)ncc4F)cc32)cc1 (racemic) [Compound V-9, (R/S)-N2-(3-Aminosulphonyl-4-methylphenyl)-5-fluoro-N4-[2-methyl-3-oxo-4-(4-methoxybenzyl)-benzo[1,4]thiazin-6-yl]-2,4-pyrimidinediamine] |  |  | IC50 (Homo sapiens, Ramos, Ramos B cells stimulated with IL-4, CD23 expression by FACS): 1110 nM
Cc1ccc(Nc2ncc(F)c(NC3CNCCC3C)n2)cc1S(N)(=O)=O (racemic) [VII-4, Racemic N2-(3-aminosulfonyl-4-methylphenyl)-5-fluoro-N4-(4-methylpiperidin-3-yl)-2,4-pyrimidinediamine] |  |  | IC50 [2]: 2490 nM
Cc1ccc(Nc2ncc(F)c(NC3CN(C(=O)CC#N)CCC3C)n2)cc1S(N)(=O)=O (racemic) [VII-5, Racemic N2-(3-aminosulfonyl-4-methylphenyl)-N4-(1-cyanomethylenecarbonyl-4-methylpiperidin-3-yl)-5-fluoro-2,4-pyrimidinediamine] |  |  | IC50 [2]: 4130 nM
COc1cc(Nc2nc(Nc3ccc(C)c(S(N)(=O)=O)c3)ncc2F)cc(OCC#N)c1OC [Compound I-2, N2-(3-Aminosulphonyl-4-methylphenyl)-N4-(3-cyanomethoxy-4,5-dimethoxyphenyl)-5-fluoro-2,4-pyrimidinediamine] |  | 532 | 
CCC(=O)NS(=O)(=O)c1cc(Nc2ncc(F)c(Nc3ccc(OCC#N)cc3)n2)ccc1C [Compound I-31, N4-(4-Cyanomethyleneoxy)phenyl-5-fluoro-N2-(4-methyl-3-propionylaminosulfonyl)phenyl-2,4-pyrimidinediamine sodium salt] |  |  | IC50 [4]: 4630 nM
CC(=O)NS(=O)(=O)c1cc(Nc2ncc(F)c(Nc3ccc(OCC#N)cc3)n2)ccc1C [Compound I-36, N2-(3-Acetylaminosulfonyl-4-methyl)phenyl-N4-(4-cyanomethyleneoxy)phenyl-5-fluoro-2,4-pyrimidinediamine] | 8800 |  | 
CC(=O)NS(=O)(=O)c1cc(Nc2ncc(F)c(Nc3ccc(OCC#N)cc3)n2)ccc1C [Compound I-38, N2-(3-Acetylaminosulfonyl-4-methyl)phenyl-N4-(4-cyanomethyleneoxy)phenyl-5-fluoro-2,4-pyrimidinediamine sodium salt] |  |  | IC50 [4]: 6440 nM
N#CCOc1ccc(Nc2nc(Nc3cccc(S(N)(=O)=O)c3)ncc2F)cc1Cl [Compound I-42, N2-(3-Aminosulfonylphenyl)-N4-(3-chloro-4-cyanomethoxyphenyl)-5-fluoro-2,4-pyrimidinediamine] |  | 24.1 | 
CCC(=O)NS(=O)(=O)c1cc(Nc2ncc(F)c(Nc3ccc(OCC#N)c(F)c3)n2)ccc1C [Compound I-48, N4-(4-Cyanomethoxy-3-fluorophenyl)-5-fluoro-N2-(4-methyl-3-propionylaminosulfonylphenyl)-2,4-pyrimidinediamine] |  | 1400 | 
COc1cc(Nc2nc(Nc3cccc(S(N)(=O)=O)c3)ncc2F)ccc1NC(=O)CC#N [Compound I-84, N2-(3-Aminosulfonylphenyl)-5-fluoroN4-[3-methoxy-4-(N-cyanoacetyl)aminophneyl]-2,4-pyrimidinediamine] | 1400 |  | 
COc1cc(Nc2nc(Nc3ccc(C)c(S(N)(=O)=O)c3)ncc2F)ccc1NC(=O)CC#N [Compound I-85, N2-(3-Aminosulfonyl-4-methylphenyl)-5-fluoroN4-[3-methoxy-4-(N-cyanoacetyl)aminophneyl]-2,4-pyrimidinediamine] | 791 |  | 
CN(C(=O)CC#N)c1ccc(Nc2nc(Nc3cccc(S(N)(=O)=O)c3)ncc2F)cc1 [Compound I-86, N2-(3-Aminosulfonylphenyl)-N4-[4-(N-cyanoacetyl-N-methyl)aminophneyl]-5-fluoro-2,4-pyrimidinediamine] | 916 |  | 
Cc1ccc(Nc2ncc(F)c(Nc3ccc(N(C)C(=O)CC#N)cc3)n2)cc1S(N)(=O)=O [Compound I-87, N2-(3-Aminosulfonyl-4-methylphenyl)-N4-[4-(N-cyanoacetyl-N-methyl)aminophneyl]-5-fluoro-2,4-pyrimidinediamine] | 1040 |  | 
NC(=O)COc1cccc(Nc2nc(Nc3cccc(S(N)(=O)=O)c3)ncc2F)c1 [Compound I-88, N4-(3-Aminocarbonylmethoxy)phenyl-N2-(3-aminosulfonyl)phenyl-5-fluoro-2,4-pyrimidinediamine] | 1080 |  | 
CN1CCN(S(=O)(=O)c2cccc(Nc3ncc(F)c(Nc4cccc(OCC(N)=O)c4)n3)c2)CC1 [Compound I-89, N4-(3-Aminocarbonylmethoxy)phenyl-5-fluoro-N2-[3-(4-methylpiperazin-1-yl)sulfonyl]phenyl-2,4-pyrimidinediamine] | 5500 |  | 
NC(=O)COc1cccc(Nc2nc(Nc3ccc(S(N)(=O)=O)cc3)ncc2F)c1 [Compound I-91, N4-(3-Aminocarbonylmethoxy)phenyl-N2-(4-aminosulfonyl)phenyl-5-fluoro-2,4-pyrimidinediamine] | 2030 |  | 
NC(=O)COc1ccc(Nc2nc(Nc3ccc(S(N)(=O)=O)cc3)ncc2F)cc1F [Compound I-100, N4-(4-Aminocarbonylmethoxy-3-fluorophenyl)-N2-(4-aminosulfonylphenyl)-5-fluoro-2,4-pyrimidinediamine] |  | 380 | 
COc1cc(Nc2nc(Nc3ccc(S(N)(=O)=O)cc3)ncc2F)ccc1OCC(N)=O [Compound I-103, N4-(4-Aminocarbonylmethoxy-3-methoxyphenyl)-N2-(4-aminosulfonylphenyl)-5-fluoro-2,4-pyrimidinediamine] |  | 1250 | 
COc1cc(Nc2nc(Nc3cccc(S(N)(=O)=O)c3)ncc2F)ccc1OCC(N)=O [Compound I-104, N4-(4-Aminocarbonylmethoxy-3-methoxyphenyl)-N2-(3-aminosulfonylphenyl)-5-fluoro-2,4-pyrimidinediamine] |  | 1430 | 
COc1cc(Nc2nc(Nc3ccc(C)c(S(N)(=O)=O)c3)ncc2F)ccc1OCC(N)=O [Compound I-105, N4-(4-Aminocarbonylmethoxy-3-methoxyphenyl)-N2-(3-aminosulfonyl-4-methylphenyl)-5-fluoro-2,4-pyrimidinediamine] |  | 1170 | 
Cc1ccc(Nc2ncc(F)c(Nc3ccc(OCC(N)=O)c(CO)c3)n2)cc1S(N)(=O)=O [Compound I-106, N4-(4-Aminocarbonylmethoxy-3-hydroxymethylphenyl)-N2-(3-aminosulfonyl-4-methylphenyl)-5-fluoro-2,4-pyrimidinediamine] |  | 2950 | 
NC(=O)COc1ccc(Nc2nc(Nc3cccc(S(N)(=O)=O)c3)ncc2F)cc1CO [Compound I-107, N4-(4-Aminocarbonylmethoxy-3-hydroxymethylphenyl]-N2-(3-aminosulfonylphenyl)-5-fluoro-2,4-pyrimidinediamine] |  | 1510 | 
NC(=O)COc1ccc(Nc2nc(Nc3cccc(S(N)(=O)=O)c3)ncc2F)cc1 [Compound I-111, N4-(4-Aminocarbonylmethoxy)phenyl-N2-(3-aminosulfonyl)phenyl-5-fluoro-2,4-pyrimidinediamine] | 890 |  | 
CN1CCN(S(=O)(=O)c2cccc(Nc3ncc(F)c(Nc4ccc(OCC(N)=O)cc4)n3)c2)CC1 [Compound I-112, N4-(4-Aminocarbonylmethoxy)phenyl-5-fluoro-N2-[3-(4-methylpiperazin-1-yl)sulfonyl]phenyl-2,4-pyrimidinediamine] | 2360 |  | 
NC(=O)COc1ccc(Nc2nc(Nc3ccc(S(N)(=O)=O)cc3)ncc2F)cc1 [Compound I-115, N4-(4-Aminocarbonylmethoxy)phenyl-N2-(4-aminosulfonyl)phenyl-5-fluoro-2,4-pyrimidinediamine] | 793 |  | 
